Measured values reported in patent US11878965B2, “Inhibitors of peptidylarginine deiminases” (Gilead Sciences, Inc., priority 2020, dated 2024).

Target: human PAD4 (Homo sapiens (Human), UniProt Q9UM07)
Experiment: In Vitro PAD4 BAEE Biochemical Assay
Details: human PAD4, BAEE substrate; 5 nM PAD4, 2 mM calcium chloride, 3 mM BAEE; geometric mean of multiple experiments
Outline: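 Deimination of BAEE substrate (3 mM) measured as ammonia via o-phthalaldehyde–DTT isoindole fluorescence, 405/535 nm. Tag-free bacterially expressed human PAD4 at 5 nM with 2 mM calcium chloride, pH 7.6 MOPS buffer, 30 min compound preincubation then 2 h reaction, both at 25 °C.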

human PAD4, sequence (Q9UM07 2-663): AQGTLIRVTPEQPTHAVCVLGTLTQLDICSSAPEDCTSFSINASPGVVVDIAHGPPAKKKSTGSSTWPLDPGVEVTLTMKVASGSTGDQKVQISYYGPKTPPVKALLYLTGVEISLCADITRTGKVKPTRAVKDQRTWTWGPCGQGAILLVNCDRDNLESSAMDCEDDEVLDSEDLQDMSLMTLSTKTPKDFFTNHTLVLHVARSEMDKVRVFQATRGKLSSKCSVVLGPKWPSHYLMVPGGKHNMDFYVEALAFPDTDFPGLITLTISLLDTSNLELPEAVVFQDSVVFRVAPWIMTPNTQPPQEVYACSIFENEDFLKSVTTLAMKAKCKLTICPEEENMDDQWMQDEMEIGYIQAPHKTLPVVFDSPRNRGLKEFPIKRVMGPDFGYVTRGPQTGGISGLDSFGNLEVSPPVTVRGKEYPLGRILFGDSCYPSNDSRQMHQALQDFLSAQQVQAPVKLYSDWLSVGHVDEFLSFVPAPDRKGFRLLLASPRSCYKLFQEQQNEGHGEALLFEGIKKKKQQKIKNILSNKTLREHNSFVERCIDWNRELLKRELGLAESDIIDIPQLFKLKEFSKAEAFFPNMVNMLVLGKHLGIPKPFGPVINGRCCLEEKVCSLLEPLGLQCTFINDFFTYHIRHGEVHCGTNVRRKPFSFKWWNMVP

SMILES	IC50
COc1cc(C(=O)N2C[C@H](N)CCN2C)cc2nc(-c3cc4ccc([C@@H](C)NC(=O)c5nc(C)ccc5C)nc4n3CC3CC3)n(C)c12 [Example 176, N-((R)-1-(2-(5-((R)-5-amino-2-methylhexahydropyridazine-1-carbonyl)-7-methoxy-1-methyl-1H-benzo[d]imidazol-2-yl)-1-(cyclopropylmethyl)-1H-pyrrolo[2,3-b]pyridin-6-yl)ethyl)-3,6-dimethylpicolinamide]	0.231 µM
COc1cc(C(=O)N2C[C@H](N)CCN2C)cc2nc(-c3cc4ccc([C@@H](C)NC(=O)c5cccnc5C)nc4n3CC3CC3)n(C)c12 [Example 177, N-((R)-1-(2-(5-((R)-5-amino-2-methylhexahydropyridazine-1-carbonyl)-7-methoxy-1-methyl-1H-benzo[d]imidazol-2-yl)-1-(cyclopropylmethyl)-1H-pyrrolo[2,3-b]pyridin-6-yl)ethyl)-2-methylnicotinamide]	0.0908 µM
COc1cc(C(=O)N2C[C@H](N)CCN2C)cc2nc(-c3cc4ccc([C@@H](C)NC(=O)c5c(C)ccnc5C)nc4n3CC3CC3)n(C)c12 [Example 178, N-((R)-1-(2-(5-((R)-5-amino-2-methylhexahydropyridazine-1-carbonyl)-7-methoxy-1-methyl-1H-benzo[d]imidazol-2-yl)-1-(cyclopropylmethyl)-1H-pyrrolo[2,3-b]pyridin-6-yl)ethyl)-2,4-dimethylnicotinamide]	0.0804 µM
COc1cc(C(=O)N2C[C@H](N)CCN2C)cc2nc(-c3cc4ccc([C@@H](C)NC(=O)c5cc(C)nc(C)c5)nc4n3CC3CC3)n(C)c12 [Example 179, N-((R)-1-(2-(5-((R)-5-amino-2-methylhexahydropyridazine-1-carbonyl)-7-methoxy-1-methyl-1H-benzo[d]imidazol-2-yl)-1-(cyclopropylmethyl)-1H-pyrrolo[2,3-b]pyridin-6-yl)ethyl)-2,6-dimethylisonicotinamide]	0.0775 µM
COc1cc(C(=O)N2C[C@H](N)CCN2C)cc2nc(-c3cc4ccc([C@@H](C)NC(=O)c5ncccn5)nc4n3CC3CC3)n(C)c12 [Example 180, N-((R)-1-(2-(5-((R)-5-amino-2-methylhexahydropyridazine-1-carbonyl)-7-methoxy-1-methyl-1H-benzo[d]imidazol-2-yl)-1-(cyclopropylmethyl)-1H-pyrrolo[2,3-b]pyridin-6-yl)ethyl)pyrimidine-2-carboxamide]	0.0288 µM
COc1cc(C(=O)N2C[C@H](N)CCN2C)cc2nc(-c3cc4ccc([C@@H](C)NC(=O)c5nccc(C)n5)nc4n3CC3CC3)n(C)c12 [Example 181, N-((R)-1-(2-(5-((R)-5-amino-2-methylhexahydropyridazine-1-carbonyl)-7-methoxy-1-methyl-1H-benzo[d]imidazol-2-yl)-1-(cyclopropylmethyl)-1H-pyrrolo[2,3-b]pyridin-6-yl)ethyl)-4-methylpyrimidine-2-carboxamide]	0.0749 µM
COc1cc(C(=O)N2C[C@H](N)CCN2C)cc2nc(-c3cc4ccc([C@@H](C)NC(=O)c5nccc(C(F)(F)F)n5)nc4n3CC3CC3)n(C)c12 [Example 182, N-((R)-1-(2-(5-((R)-5-amino-2-methylhexahydropyridazine-1-carbonyl)-7-methoxy-1-methyl-1H-benzo[d]imidazol-2-yl)-1-(cyclopropylmethyl)-1H-pyrrolo[2,3-b]pyridin-6-yl)ethyl)-4-(trifluoromethyl)pyrimidine-2-carboxamide]	0.104 µM
COc1cc(C(=O)N2C[C@H](N)CCN2C)cc2nc(-c3cc4ccc([C@@H](C)NC(=O)c5nc(C)cc(C(F)(F)F)n5)nc4n3CC3CC3)n(C)c12 [Example 183, N-((R)-1-(2-(5-((R)-5-amino-2-methylhexahydropyridazine-1-carbonyl)-7-methoxy-1-methyl-1H-benzo[d]imidazol-2-yl)-1-(cyclopropylmethyl)-1H-pyrrolo[2,3-b]pyridin-6-yl)ethyl)-4-methyl-6-(trifluoromethyl)pyrimidine-2-carboxamide]	0.198 µM
COc1cc(C(=O)N2C[C@H](N)CCN2C)cc2nc(-c3cc4ccc([C@@H](C)NC(=O)c5c(C)cccc5C(F)(F)F)nc4n3CC3CC3)n(C)c12 [Example 184, N-((R)-1-(2-(5-((R)-5-amino-2-methylhexahydropyridazine-1-carbonyl)-7-methoxy-1-methyl-1H-benzo[d]imidazol-2-yl)-1-(cyclopropylmethyl)-1H-pyrrolo[2,3-b]pyridin-6-yl)ethyl)-2-methyl-6-(trifluoromethyl)benzamide]	0.204 µM
COc1cc(C(=O)N2C[C@H](N)CCN2C)cc2nc(-c3cc4ccc([C@@H](C)NC(=O)C56CC(C5)C6)nc4n3CC3CC3)n(C)c12 [Example 185, N-((R)-1-(2-(5-((R)-5-amino-2-methylhexahydropyridazine-1-carbonyl)-7-methoxy-1-methyl-1H-benzo[d]imidazol-2-yl)-1-(cyclopropylmethyl)-1H-pyrrolo[2,3-b]pyridin-6-yl)ethyl)bicyclo[1.1.1]pentane-1-carboxamide]	0.0821 µM
COc1cc(C(=O)N2C[C@H](N)CCN2C)cc2nc(-c3cc4ccc([C@@H](C)NC(=O)C56CC(Cl)(C5)C6)nc4n3CC3CC3)n(C)c12 [Example 186, N—((R)-1-(2-(5-((R)-5-amino-2-methylhexahydropyridazine-1-carbonyl)-7-methoxy-1-methyl-1H-benzo[d]imidazol-2-yl)-1-(cyclopropylmethyl)-1H-pyrrolo[2,3-b]pyridin-6-yl)ethyl)-3-chlorobicyclo[1.1.1]pentane-1-carboxamide]	0.105 µM
COc1cc(C(=O)N2C[C@H](N)CCN2C)cc2nc(-c3cc4ccc([C@@H](C)NC(=O)C56CC(C)(C5)C6)nc4n3CC3CC3)n(C)c12 [Example 187, N-((R)-1-(2-(5-((R)-5-amino-2-methylhexahydropyridazine-1-carbonyl)-7-methoxy-1-methyl-1H-benzo[d]imidazol-2-yl)-1-(cyclopropylmethyl)-1H-pyrrolo[2,3-b]pyridin-6-yl)ethyl)-3-methylbicyclo[1.1.1]pentane-1-carboxamide]	0.0969 µM
COc1cc(C(=O)N2C[C@H](N)CCN2C)cc2nc(-c3cc4ccc([C@@H](C)NC(=O)C56CC(C(F)(F)F)(C5)C6)nc4n3CC3CC3)n(C)c12 [Example 188, N-((R)-1-(2-(5-((R)-5-amino-2-methylhexahydropyridazine-1-carbonyl)-7-methoxy-1-methyl-1H-benzo[d]imidazol-2-yl)-1-(cyclopropylmethyl)-1H-pyrrolo[2,3-b]pyridin-6-yl)ethyl)-3-(trifluoromethyl)bicyclo [1.1.1]pentane-1-carboxamide]	0.149 µM
[2H]C([2H])([2H])C(C(=O)N[C@H](C)c1ccc2cc(-c3nc4cc(C(=O)N5C[C@H](N)CCN5C)cc(OC)c4n3C)n(CC3CC3)c2n1)(C([2H])([2H])[2H])C([2H])([2H])[2H] [Example 189, N-((R)-1-(2-(5-((R)-5-amino-2-methylhexahydropyridazine-1-carbonyl)-7-methoxy-1-methyl-1H-benzo[d]imidazol-2-yl)-1-(cyclopropylmethyl)-1H-pyrrolo[2,3-b]pyridin-6-yl)ethyl)-2,2-bis(methyl-d3)propanamide]	0.0922 µM
COc1cc(C(=O)N2C[C@H](N)CCN2C)cc2nc(-c3cc4ccc([C@@H](C)NC(=O)C5(CF)CC5)nc4n3CC3CC3)n(C)c12 [Example 190, N-((R)-1-(2-(5-((R)-5-amino-2-methylhexahydropyridazine-1-carbonyl)-7-methoxy-1-methyl-1H-benzo[d]imidazol-2-yl)-1-(cyclopropylmethyl)-1H-pyrrolo[2,3-b]pyridin-6-yl)ethyl)-1-(fluoromethyl)cyclopropane-1-carboxamide]	0.0897 µM
COc1cc(C(=O)N2C[C@H](N)CCN2C)cc2nc(-c3cc4ccc([C@@H](C)NC(=O)C5(C(F)F)CC5)nc4n3CC3CC3)n(C)c12 [Example 191, N-((R)-1-(2-(5-((R)-5-amino-2-methylhexahydropyridazine-1-carbonyl)-7-methoxy-1-methyl-1H-benzo[d]imidazol-2-yl)-1-(cyclopropylmethyl)-1H-pyrrolo[2,3-b]pyridin-6-yl)ethyl)-1-(difluoromethyl)cyclopropane-1-carboxamide]	0.0824 µM
COc1cc(C(=O)N2C[C@H](N)CCN2C)cc2nc(-c3cc4ccc([C@@H](C)NC(=O)C5(C(F)(F)F)CC5)nc4n3CC3CC3)n(C)c12 [Example 192, N-((R)-1-(2-(5-((R)-5-amino-2-methylhexahydropyridazine-1-carbonyl)-7-methoxy-1-methyl-1H-benzo[d]imidazol-2-yl)-1-(cyclopropylmethyl)-1H-pyrrolo[2,3-b]pyridin-6-yl)ethyl)-1-(trifluoromethyl)cyclopropane-1-carboxamide]	0.174 µM
COc1cc(C(=O)N2C[C@H](N)CCN2C)cc2nc(-c3cc4ccc([C@@H](C)NC(=O)C5(CC(F)F)CC5)nc4n3CC3CC3)n(C)c12 [Example 193, N-((R)-1-(2-(5-((R)-5-amino-2-methylhexahydropyridazine-1-carbonyl)-7-methoxy-1-methyl-1H-benzo[d]imidazol-2-yl)-1-(cyclopropylmethyl)-1H-pyrrolo[2,3-b]pyridin-6-yl)ethyl)-1-(2,2-difluoroethyl)cyclopropane-1-carboxamide]	0.142 µM
COc1cc(C(=O)N2C[C@H](N)CCN2C)cc2nc(-c3cc4ccc([C@@H](C)NC(=O)c5ccccc5C)nc4n3CC3CC3)n(C)c12 [Example 194, N-((R)-1-(2-(5-((R)-5-amino-2-methylhexahydropyridazine-1-carbonyl)-7-methoxy-1-methyl-1H-benzo[d]imidazol-2-yl)-1-(cyclopropylmethyl)-1H-pyrrolo[2,3-b]pyridin-6-yl)ethyl)-2-methylbenzamide]	0.123 µM
